Results from patent US11505543B2, “4-oxo-3,4-dihydroquinazoline compounds as inhibitors of human immunodeficiency virus replication” (VIIV HEALTHCARE UK (NO.5) LIMITED, priority 2018, dated 2022).

Tests used:
[1] = system: recombinant NL4-3 virus (nef section replaced with Renilla luciferase gene) in MT-2 cells; test: HIV cell culture assay (antiviral activity, luciferase readout); format: cell-based; conditions: Renilla, NL43, MT-2 cells infected for 4-5 days with recombinant NL4-3 Renilla luciferase virus, serial dilutions of compound
How it was run: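 Test compound in serial dilution was present while MT-2 cells were infected for 4–5 days with recombinant NL4-3 virus made in 293T cells. Antiviral activity was quantified as Renilla luciferase activity, read with a live-cell substrate. EC50 came from the median-effect equation.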

[2] = Compound cytotoxicity, XTT-based colorimetric assay; format: cell-based; conditions: human, uninfected MT2 cells, day 4, XTT
How it was run: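 Run under the antiviral-assay protocol but without virus. Viability was read on day 4 and CC50 values were derived from the readout.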

SMILES | EC50 [1] [nM] | CC50 at 4 day [2] [nM]
Cc1cc(C)nc(-c2ccc3c(=O)n(-c4ccc(Cl)c5c(NS(C)(=O)=O)nn(CC(F)(F)F)c45)c([C@H](Cc4cc(F)cc(F)c4)NC(=O)Cn4nc(C(F)F)c5c4C(F)(F)[C@@H]4C[C@H]54)nc3c2)n1 [Example 164, N-((S)-1-(3-(4-chloro-3-(methylsulfonamido)-1-(2,2,2-trifluoroethyl)-1H-indazol-7-yl)-7-(4,6-dimethylpyrimidin-2-yl)-4-oxo-3,4-dihydroquinazolin-2-yl)-2-(3,5-difluorophenyl)ethyl)-2-((3bS,4aR)-3-(difluoromethyl)-5,5-difluoro-3b,4,4a,5-tetrahydro-1H-cyclopropa[3,4]cyclopenta[1,2-c]pyrazol-1-yl)acetamide] | 0.096 | > 500
Cc1nccnc1-c1ccc2c(=O)n(-c3ccc(Cl)c4c(NS(C)(=O)=O)nn(CC(F)(F)F)c34)c([C@H](Cc3cc(F)cc(F)c3)NC(=O)Cn3nc(C(F)F)c4c3C(F)(F)[C@@H]3C[C@H]43)nc2c1 [Example 165, N-((S)-1-(3-(4-chloro-3-(methylsulfonamido)-1-(2,2,2-trifluoroethyl)-1H-indazol-7-yl)-7-(3-methylpyrazin-2-yl)-4-oxo-3,4-dihydroquinazolin-2-yl)-2-(3,5-difluorophenyl)ethyl)-2-((3bS,4aR)-3-(difluoromethyl)-5,5-difluoro-3b,4,4a,5-tetrahydro-1H-cyclopropa[3,4]cyclopenta[1,2-c]pyrazol-1-yl)acetamide] | 0.05 | > 500
Cc1ncc(-c2ccc3c(=O)n(-c4ccc(Cl)c5c(NS(C)(=O)=O)nn(CC(F)(F)F)c45)c([C@H](Cc4cc(F)cc(F)c4)NC(=O)Cn4nc(C(F)F)c5c4C(F)(F)[C@@H]4C[C@H]54)nc3c2)cn1 [Example 166, N-((S)-1-(3-(4-chloro-3-(methylsulfonamido)-1-(2,2,2-trifluoroethyl)-1H-indazol-7-yl)-7-(2-methylpyrimidin-5-yl)-4-oxo-3,4-dihydroquinazolin-2-yl)-2-(3,5-difluorophenyl)ethyl)-2-((3bS,4aR)-3-(difluoromethyl)-5,5-difluoro-3b,4,4a,5-tetrahydro-1H-cyclopropa[3,4]cyclopenta[1,2-c]pyrazol-1-yl)acetamide] | 0.037 | > 500
CS(=O)(=O)Nc1nn(CC(F)(F)F)c2c(-n3c([C@H](Cc4cc(F)cc(F)c4)NC(=O)Cn4nc(C(F)F)c5c4C(F)(F)[C@@H]4C[C@H]54)nc4cc(-c5ccccc5S(C)(=O)=O)ccc4c3=O)ccc(Cl)c12 [Example 167, N-((S)-1-(3-(4-chloro-3-(methylsulfonamido)-1-(2,2,2-trifluoroethyl)-1H-indazol-7-yl)-7-(2-(methylsulfonyl)phenyl)-4-oxo-3,4-dihydroquinazolin-2-yl)-2-(3,5-difluorophenyl)ethyl)-2-((3bS,4aR)-3-(difluoromethyl)-5,5-difluoro-3b,4,4a,5-tetrahydro-1H-cyclopropa[3,4]cyclopenta[1,2-c]pyrazol-1-yl)acetamide] | 0.08 | > 500
Cn1nc(NS(C)(=O)=O)c2c(Cl)ccc(-n3c([C@H](Cc4cc(F)cc(F)c4)NC(=O)Cn4nc(C(F)F)c5c4C(F)(F)[C@@H]4C[C@H]54)nc4cc(-c5ccc(F)c(F)c5F)ccc4c3=O)c21 [Example 168, N-((S)-1-(3-(4-chloro-1-methyl-3-(methylsulfonamido)-1H-indazol-7-yl)-4-oxo-7-(2,3,4-trifluorophenyl)-3,4-dihydroquinazolin-2-yl)-2-(3,5-difluorophenyl)ethyl)-2-((3bS,4aR)-3-(difluoromethyl)-5,5-difluoro-3b,4,4a,5-tetrahydro-1H-cyclopropa[3,4]cyclopenta[1,2-c]pyrazol-1-yl)acetamide] | 0.7 | > 500
Cn1nc(NS(C)(=O)=O)c2c(Cl)ccc(-n3c([C@H](Cc4cc(F)cc(F)c4)NC(=O)Cn4nc(C(F)F)c5c4C(F)(F)[C@@H]4C[C@H]54)nc4cc(-c5ccc(F)c(C#N)c5F)ccc4c3=O)c21 [Example 170, N-((S)-1-(3-(4-chloro-1-methyl-3-(methylsulfonamido)-1H-indazol-7-yl)-7-(3-cyano-2,4-difluorophenyl)-4-oxo-3,4-dihydroquinazolin-2-yl)-2-(3,5-difluorophenyl)ethyl)-2-((3bS,4aR)-3-(difluoromethyl)-5,5-difluoro-3b,4,4a,5-tetrahydro-1H-cyclopropa[3,4]cyclopenta[1,2-c]pyrazol-1-yl)acetamide] | 0.58 | > 500
Cn1nc(NS(C)(=O)=O)c2c(Cl)ccc(-n3c([C@H](Cc4cc(F)cc(F)c4)NC(=O)Cn4nc(C(F)F)c5c4C(F)(F)[C@@H]4C[C@H]54)nc4cc(-c5c(F)cc(F)cc5F)ccc4c3=O)c21 [Example 172, N-((S)-1-(3-(4-chloro-1-methyl-3-(methylsulfonamido)-1H-indazol-7-yl)-4-oxo-7-(2,4,6-trifluorophenyl)-3,4-dihydroquinazolin-2-yl)-2-(3,5-difluorophenyl)ethyl)-2-((3bS,4aR)-3-(difluoromethyl)-5,5-difluoro-3b,4,4a,5-tetrahydro-1H-cyclopropa[3,4]cyclopenta[1,2-c]pyrazol-1-yl)acetamide] | 0.25 | > 500
Cn1nc(NS(C)(=O)=O)c2c(Cl)ccc(-n3c([C@H](Cc4cc(F)cc(F)c4)NC(=O)Cn4nc(C(F)F)c5c4C(F)(F)[C@@H]4C[C@H]54)nc4cc(-c5ccc(F)c(F)c5)ccc4c3=O)c21 [Example 173, N-((S)-1-(3-(4-chloro-1-methyl-3-(methylsulfonamido)-1H-indazol-7-yl)-7-(3,4-difluorophenyl)-4-oxo-3,4-dihydroquinazolin-2-yl)-2-(3,5-difluorophenyl)ethyl)-2-((3bS,4aR)-3-(difluoromethyl)-5,5-difluoro-3b,4,4a,5-tetrahydro-1H-cyclopropa[3,4]cyclopenta[1,2-c]pyrazol-1-yl)acetamide] | 0.68 | > 500
Cc1ncc(-c2ccc3c(=O)n(-c4ccc(Cl)c5c(NS(C)(=O)=O)nn(CC(F)F)c45)c([C@H](Cc4cc(F)cc(F)c4)NC(=O)Cn4nc(C(F)F)c5c4C(F)(F)[C@@H]4C[C@H]54)nc3c2)cn1 [Example 174, N-((S)-1-(3-(4-chloro-1-(2,2-difluoroethyl)-3-(methylsulfonamido)-1H-indazol-7-yl)-7-(2-methylpyrimidin-5-yl)-4-oxo-3,4-dihydroquinazolin-2-yl)-2-(3,5-difluorophenyl)ethyl)-2-((3bS,4aR)-3-(difluoromethyl)-5,5-difluoro-3b,4,4a,5-tetrahydro-1H-cyclopropa[3,4]cyclopenta[1,2-c]pyrazol-1-yl)acetamide] | 0.033 | > 500
Cc1cccc(-c2ccc3c(=O)n(-c4ccc(Cl)c5c(NS(C)(=O)=O)nn(CC(F)F)c45)c([C@H](Cc4cc(F)cc(F)c4)NC(=O)Cn4nc(C(F)F)c5c4C(F)(F)[C@@H]4C[C@H]54)nc3c2)n1 [Example 175, N-((S)-1-(3-(4-chloro-1-(2,2-difluoroethyl)-3-(methylsulfonamido)-1H-indazol-7-yl)-7-(6-methylpyridin-2-yl)-4-oxo-3,4-dihydroquinazolin-2-yl)-2-(3,5-difluorophenyl)ethyl)-2-((3bS,4aR)-3-(difluoromethyl)-5,5-difluoro-3b,4,4a,5-tetrahydro-1H-cyclopropa[3,4]cyclopenta[1,2-c]pyrazol-1-yl)acetamide] | 0.08 | > 500
CS(=O)(=O)Nc1nn(CC(F)F)c2c(-n3c([C@H](Cc4cc(F)cc(F)c4)NC(=O)Cn4nc(C(F)F)c5c4C(F)(F)[C@@H]4C[C@H]54)nc4cc(-c5ccccc5S(C)(=O)=O)ccc4c3=O)ccc(Cl)c12 [Example 176, N-((S)-1-(3-(4-chloro-1-(2,2-difluoroethyl)-3-(methylsulfonamido)-1H-indazol-7-yl)-7-(2-(methylsulfonyl)phenyl)-4-oxo-3,4-dihydroquinazolin-2-yl)-2-(3,5-difluorophenyl)ethyl)-2-((3bS,4aR)-3-(difluoromethyl)-5,5-difluoro-3b,4,4a,5-tetrahydro-1H-cyclopropa[3,4]cyclopenta[1,2-c]pyrazol-1-yl)acetamide] | 0.066 | > 500
CCS(=O)(=O)c1ccccc1-c1ccc2c(=O)n(-c3ccc(Cl)c4c(NS(C)(=O)=O)nn(CC(F)F)c34)c([C@H](Cc3cc(F)cc(F)c3)NC(=O)Cn3nc(C(F)F)c4c3C(F)(F)[C@@H]3C[C@H]43)nc2c1 [Example 177, N-((S)-1-(3-(4-chloro-1-(2,2-difluoroethyl)-3-(methylsulfonamido)-1H-indazol-7-yl)-7-(2-(ethylsulfonyl)phenyl)-4-oxo-3,4-dihydroquinazolin-2-yl)-2-(3,5-difluorophenyl)ethyl)-2-((3bS,4aR)-3-(difluoromethyl)-5,5-difluoro-3b,4,4a,5-tetrahydro-1H-cyclopropa[3,4]cyclopenta[1,2-c]pyrazol-1-yl)acetamide] | 0.053 | > 500
CC(C)S(=O)(=O)c1ccccc1-c1ccc2c(=O)n(-c3ccc(Cl)c4c(NS(C)(=O)=O)nn(CC(F)F)c34)c([C@H](Cc3cc(F)cc(F)c3)NC(=O)Cn3nc(C(F)F)c4c3C(F)(F)[C@@H]3C[C@H]43)nc2c1 [Example 178, N-((S)-1-(3-(4-chloro-1-(2,2-difluoroethyl)-3-(methylsulfonamido)-1H-indazol-7-yl)-7-(2-(isopropylsulfonyl)phenyl)-4-oxo-3,4-dihydroquinazolin-2-yl)-2-(3,5-difluorophenyl)ethyl)-2-((3bS,4aR)-3-(difluoromethyl)-5,5-difluoro-3b,4,4a,5-tetrahydro-1H-cyclopropa[3,4]cyclopenta[1,2-c]pyrazol-1-yl)acetamide] | 0.065 | > 500
